Data taken from patent US11795169B2, “MAP4K4 inhibitors” (IMPERIAL COLLEGE INNOVATIONS LIMITED, priority 2017, dated 2023).
Read-outs that look alike come from different tables or passages of the source. Each block holds one molecule with its values, some of them ahead of it.

Assays:
KHS/MAP4K5 = KHS/MAP4K5 (Homo sapiens (Human), UniProt Q9Y4K4); test: Kinase selectivity panel: KHS/MAP4K5; type: biochemical
Excerpt: (§1) Compounds of the present invention were screened for their inhibitory activity against MAP4K4, versus selected off-target hits found with early members of this chemical series. MAP4K4 kinase activity was monitored using the CisBio HTRF Transcreener ADP assay, acompetitive immunoassay with a reproducible Z′>0.6. In the detection step, endogenous ADP and d2-labeled ADP compete for binding an anti-ADP monoclonal antibody labelled with Eu^3+ cryptate. A ratiometric fluorescent read-out is used at 665 and 620 nm. […] Assays were run in Greiner low volume plates with a final reaction volume of 10 μl. The MAP4K4 inhibition data are provided in Table 33 below for selected compounds of the present invention. The data has been categorised based on the IC50 value of the compound as “A”, “B” or “C”.
(§2) The data in Table 34 also provides the fold selectivity of the two compounds in favour of MAP4K4 over the tested kinase. The fold selectivity is indicated in parenthesis.

GSK3β = GSK3β (Homo sapiens (Human), UniProt P49841); test: Kinase selectivity panel: GSK3β; type: biochemical
Excerpt: as §1, §2

MLK1/MAP3K9 = MLK1/MAP3K9 (Homo sapiens (Human), UniProt P80192); test: Kinase selectivity panel: MLK1/MAP3K9; type: biochemical
Excerpt: as §1, §2

TNIK/MAP4K7 = TNIK/MAP4K7 (Homo sapiens (Human), UniProt Q9UKE5); test: Kinase selectivity panel: TNIK/MAP4K7; type: biochemical
Excerpt: as §1, §2

ABL1 = ABL1 (Homo sapiens (Human), UniProt P00519); test: Kinase selectivity panel: ABL1; type: biochemical
Excerpt: as §1, §2

VEGFR = test: Kinase selectivity panel: VEGFR; type: biochemical
Procedure: (§3) In the detection step, endogenous ADP and d2-labeled ADP compete for binding an anti-ADP monoclonal antibody labelled with Eu^3+ cryptate. […] Assays were run in Greiner low volume plates with a final reaction volume of 10 μl.
(§4) The fold selectivity is indicated in parenthesis.

[1] = biological target: human MAP4K4 kinase domain (Homo sapiens (Human), UniProt O95819); test: MAP4K4 kinase activity, CisBio HTRF Transcreener ADP assay; type: biochemical
Excerpt: as §1

GLK/MAP4K3 = GLK/MAP4K3 (Homo sapiens (Human), UniProt Q8IVH8); test: Kinase selectivity panel: GLK/MAP4K3; type: biochemical
Excerpt: as §1, §2

MINK1/MAP4K6 = MINK1/MAP4K6 (Homo sapiens (Human), UniProt Q8N4C8); test: Kinase selectivity panel: MINK1/MAP4K6; type: biochemical
Excerpt: as §1, §2

GCK/MAP4K2 = GCK/MAP4K2 (Homo sapiens (Human), UniProt Q12851); test: Kinase selectivity panel: GCK/MAP4K2; type: biochemical
Excerpt: as §1, §2

NUAK = test: Kinase selectivity panel: NUAK; type: biochemical
Procedure: as §3, §4

MLK3/MAP3K11 = MLK3/MAP3K11 (Homo sapiens (Human), UniProt Q16584); test: Kinase selectivity panel: MLK3/MAP3K11; type: biochemical
Excerpt: as §1, §2

FLT3 = FLT3 (Homo sapiens (Human), UniProt P36888); test: Kinase selectivity panel: FLT3; type: biochemical
Excerpt: as §1, §2

Aurora B = Aurora B (Homo sapiens (Human), UniProt Q96GD4); test: Kinase selectivity panel: Aurora B; type: biochemical
Excerpt: as §1, §2

[2] = Pharmacokinetics in mice (IV and oral)
[3] = system: mice undergoing experimental myocardial infarction; test: Experimental myocardial infarction in mice (infarct size, TUNEL staining); type: in vivo; details: for reduction in infarct size as a proportion of the area at ischemic risk: 50 mg kg−1 twice by gavage
Procedure: To test if target validation and compound development in hiPSC-CMs might predict success in a whole-animal context, mice undergoing experimental myocardial infarction were treated with Ex-58 or the vehicle control (FIG. 9). […] Treatment was begun either 20 min prior to ischemia (FIG. 9D), or 1 h after reperfusion injury (FIG. 9E, F), the latter having greater relevance to potential clinical benefits.

[4] = system: CorV.4U cardiomyocytes (hiPSC-CMs); test: Protection of CorV.4U cardiomyocytes from H2O2 or menadione (luminescent cell viability assay, human cardiac troponin assay); type: cell-based
Excerpt: To substantiate the hypothesis that pharmacological inhibition of MAP4K4 would confer resistance to cell death in human cardiomyocytes, cytoprotection was next assessed using hiPSC-CMs.

H9c2 cardiomyocytes = test: Protection of H9c2 cardiomyocytes; type: cell-based
[5] = mouse, in vivo; for AUCinf: po, 50 mg/kg
CorV.4U hiPSC-CMs = test: Mitochondrial function in CorV.4U hiPSC-CMs after acute oxidative stress (menadione); type: cell-based, human; details: 10 μM compound, 15 μM menadione for 2 h
Procedure: Key aspects of mitochondrial function were monitored in CorV.4U hiPSC-CMs after acute oxidative stress (15 μM menadione for 2 h), with or without Ex-58 (FIG. 8A).

[6] = Resistance to degradation in hepatocyte microsomes (Heps); type: in vitro ADME
Cyp = Cyp Inhibition; type: in vitro ADME
hiPSC-CMs = test: Calcium cycling in hiPSC-CMs (Fura-2) under menadione; type: cell-based, human
Procedure: Calcium cycling, a hallmark of the cardiac phenotype, likewise is susceptible to redox- and phosphorylation-dependent abnormalities. To determine whether MAP4K4 inhibition might preserve calcium homeostasis, hiPSC-CMs were assessed using the intracellular calcium indicator, Fura-2 (FIG. 8B). […] At 50 μM menadione, spontaneous calcium oscillations persisted in only 8 of 24 cultures (33.3%), versus 21 of 24 receiving 10 μM Ex-58 (87.5%; P<0.001).

[7] = Plasma protein binding (PPB); type: in vitro ADME; details: plasma
[8] = system: iCell cardiomyocytes (hiPSC-CMs); test: Human cardiac muscle cell death in iCell cardiomyocytes (DRAQ7 uptake); type: cell-based; details: 1.25 μM, lowest concentration tested
Excerpt: First, the expression of cardiomyocyte-specific markers and of MAP4K4 protein was validated (FIG. 5A, B). Two of three shRNAs directed against human MAP4K4 reduced expression >60%, with no extraneous effect on M/NK/MAP4K6 and TN/K/MAP4K7, the most closely related genes (FIG. 5C). Cell death was quantified by high-content analysis (FIG. 5D) as the loss of membrane integrity (DRAQ7 uptake) in successfully transduced (GFP^+) hiPSC-CMs (Myh6-RFP^+). Each of the two potent shRNAs conferred protection against H2O2: myocyte loss was reduced up to 50% (FIG. 5E).
To substantiate the hypothesis that pharmacological inhibition of MAP4K4 would confer resistance to cell death in human cardiomyocytes, cytoprotection was next assessed using hiPSC-CMs. […] Human cardiac muscle cell protection was substantiated in a second, independent line, CorV.4U cardiomyocytes, which are more highly enriched for ventricular myocytes.

[9] = ATP at Km (10 μM), 0.5 nM kinase domain, 2 h, read-out: MAP4K4

Sequence of GLK/MAP4K3 (Q8IVH8 whole entry): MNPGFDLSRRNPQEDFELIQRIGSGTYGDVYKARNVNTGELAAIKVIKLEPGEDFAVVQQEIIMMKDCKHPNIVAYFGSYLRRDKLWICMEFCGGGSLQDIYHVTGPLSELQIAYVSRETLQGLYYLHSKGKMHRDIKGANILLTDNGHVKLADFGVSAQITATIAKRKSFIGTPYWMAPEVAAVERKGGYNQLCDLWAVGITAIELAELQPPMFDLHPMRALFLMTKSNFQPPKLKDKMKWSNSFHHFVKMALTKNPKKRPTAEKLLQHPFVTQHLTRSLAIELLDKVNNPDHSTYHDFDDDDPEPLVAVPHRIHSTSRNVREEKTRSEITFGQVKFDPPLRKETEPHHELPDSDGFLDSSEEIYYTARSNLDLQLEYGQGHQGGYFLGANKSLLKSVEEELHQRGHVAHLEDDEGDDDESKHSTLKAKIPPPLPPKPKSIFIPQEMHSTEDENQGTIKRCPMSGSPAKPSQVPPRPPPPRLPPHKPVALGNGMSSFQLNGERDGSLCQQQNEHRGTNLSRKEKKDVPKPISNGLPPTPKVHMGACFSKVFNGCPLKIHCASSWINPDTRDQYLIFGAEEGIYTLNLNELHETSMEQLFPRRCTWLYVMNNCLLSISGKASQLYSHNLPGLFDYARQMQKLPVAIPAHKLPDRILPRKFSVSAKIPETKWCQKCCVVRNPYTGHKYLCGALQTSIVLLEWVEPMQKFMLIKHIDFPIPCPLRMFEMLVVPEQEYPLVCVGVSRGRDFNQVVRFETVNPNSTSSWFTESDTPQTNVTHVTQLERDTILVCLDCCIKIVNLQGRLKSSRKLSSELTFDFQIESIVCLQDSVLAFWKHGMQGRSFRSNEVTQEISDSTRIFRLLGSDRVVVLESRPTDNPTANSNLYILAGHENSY
Sequence of FLT3 (P36888 27-993, species assumed): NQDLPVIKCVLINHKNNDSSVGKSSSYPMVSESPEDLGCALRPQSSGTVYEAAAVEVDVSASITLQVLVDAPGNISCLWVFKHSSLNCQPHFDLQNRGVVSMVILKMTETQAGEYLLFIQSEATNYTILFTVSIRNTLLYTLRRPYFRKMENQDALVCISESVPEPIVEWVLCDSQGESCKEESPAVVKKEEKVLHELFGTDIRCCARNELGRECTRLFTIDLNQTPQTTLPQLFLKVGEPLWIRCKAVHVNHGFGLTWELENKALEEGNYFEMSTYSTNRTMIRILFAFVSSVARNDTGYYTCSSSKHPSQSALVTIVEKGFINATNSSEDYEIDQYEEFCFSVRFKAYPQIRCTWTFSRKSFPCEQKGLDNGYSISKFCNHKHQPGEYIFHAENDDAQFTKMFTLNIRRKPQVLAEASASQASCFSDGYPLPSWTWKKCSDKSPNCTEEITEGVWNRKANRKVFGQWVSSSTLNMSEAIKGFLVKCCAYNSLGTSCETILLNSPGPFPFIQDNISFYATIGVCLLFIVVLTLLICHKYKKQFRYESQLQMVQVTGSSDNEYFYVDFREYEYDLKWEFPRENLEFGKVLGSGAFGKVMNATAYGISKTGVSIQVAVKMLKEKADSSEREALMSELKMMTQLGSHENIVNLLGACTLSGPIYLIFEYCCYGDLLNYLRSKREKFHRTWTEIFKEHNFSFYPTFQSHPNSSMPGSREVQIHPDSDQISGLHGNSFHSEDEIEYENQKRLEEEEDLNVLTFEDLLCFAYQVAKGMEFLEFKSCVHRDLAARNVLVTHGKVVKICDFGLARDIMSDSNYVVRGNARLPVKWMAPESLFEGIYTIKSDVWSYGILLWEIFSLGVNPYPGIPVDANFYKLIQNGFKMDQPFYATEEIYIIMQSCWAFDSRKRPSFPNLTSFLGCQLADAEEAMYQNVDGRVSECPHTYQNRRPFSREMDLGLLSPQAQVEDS
Sequence of human MAP4K4 kinase domain (O95819 25-289): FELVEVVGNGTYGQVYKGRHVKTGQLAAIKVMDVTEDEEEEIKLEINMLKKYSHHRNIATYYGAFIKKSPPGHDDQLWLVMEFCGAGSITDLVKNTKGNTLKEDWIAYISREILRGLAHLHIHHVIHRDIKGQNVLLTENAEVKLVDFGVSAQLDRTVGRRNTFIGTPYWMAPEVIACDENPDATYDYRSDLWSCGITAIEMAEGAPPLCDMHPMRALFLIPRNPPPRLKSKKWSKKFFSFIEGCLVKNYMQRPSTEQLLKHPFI
Sequence of MLK1/MAP3K9 (P80192 whole entry): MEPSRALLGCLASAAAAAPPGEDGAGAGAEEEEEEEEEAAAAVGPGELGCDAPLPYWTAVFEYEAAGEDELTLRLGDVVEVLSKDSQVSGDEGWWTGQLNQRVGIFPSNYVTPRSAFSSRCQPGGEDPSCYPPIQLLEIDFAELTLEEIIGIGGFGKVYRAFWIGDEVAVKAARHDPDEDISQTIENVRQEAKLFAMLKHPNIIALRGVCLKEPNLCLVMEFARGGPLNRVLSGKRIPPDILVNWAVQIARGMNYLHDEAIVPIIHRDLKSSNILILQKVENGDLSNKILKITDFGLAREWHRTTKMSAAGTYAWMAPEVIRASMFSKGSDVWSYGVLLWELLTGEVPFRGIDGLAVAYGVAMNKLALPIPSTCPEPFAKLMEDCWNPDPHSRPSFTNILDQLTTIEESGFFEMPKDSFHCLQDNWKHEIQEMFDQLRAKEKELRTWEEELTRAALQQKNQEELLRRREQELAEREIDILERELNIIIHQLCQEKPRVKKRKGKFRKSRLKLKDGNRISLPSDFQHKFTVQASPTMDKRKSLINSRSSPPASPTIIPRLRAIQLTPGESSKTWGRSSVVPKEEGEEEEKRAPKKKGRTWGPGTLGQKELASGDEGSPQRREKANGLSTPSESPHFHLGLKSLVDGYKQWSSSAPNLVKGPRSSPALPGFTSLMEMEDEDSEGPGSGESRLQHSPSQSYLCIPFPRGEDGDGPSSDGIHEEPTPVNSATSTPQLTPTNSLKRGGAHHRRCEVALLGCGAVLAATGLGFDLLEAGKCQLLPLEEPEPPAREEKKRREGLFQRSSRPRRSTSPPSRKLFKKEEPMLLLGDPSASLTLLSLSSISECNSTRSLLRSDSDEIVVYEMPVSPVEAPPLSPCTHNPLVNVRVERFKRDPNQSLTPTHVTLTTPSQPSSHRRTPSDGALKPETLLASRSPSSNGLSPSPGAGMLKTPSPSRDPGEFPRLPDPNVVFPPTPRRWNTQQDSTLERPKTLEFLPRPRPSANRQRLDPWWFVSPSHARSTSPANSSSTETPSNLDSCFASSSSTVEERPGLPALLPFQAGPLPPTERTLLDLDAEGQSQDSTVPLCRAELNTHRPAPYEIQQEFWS
Sequence of GCK/MAP4K2 (Q12851 whole entry): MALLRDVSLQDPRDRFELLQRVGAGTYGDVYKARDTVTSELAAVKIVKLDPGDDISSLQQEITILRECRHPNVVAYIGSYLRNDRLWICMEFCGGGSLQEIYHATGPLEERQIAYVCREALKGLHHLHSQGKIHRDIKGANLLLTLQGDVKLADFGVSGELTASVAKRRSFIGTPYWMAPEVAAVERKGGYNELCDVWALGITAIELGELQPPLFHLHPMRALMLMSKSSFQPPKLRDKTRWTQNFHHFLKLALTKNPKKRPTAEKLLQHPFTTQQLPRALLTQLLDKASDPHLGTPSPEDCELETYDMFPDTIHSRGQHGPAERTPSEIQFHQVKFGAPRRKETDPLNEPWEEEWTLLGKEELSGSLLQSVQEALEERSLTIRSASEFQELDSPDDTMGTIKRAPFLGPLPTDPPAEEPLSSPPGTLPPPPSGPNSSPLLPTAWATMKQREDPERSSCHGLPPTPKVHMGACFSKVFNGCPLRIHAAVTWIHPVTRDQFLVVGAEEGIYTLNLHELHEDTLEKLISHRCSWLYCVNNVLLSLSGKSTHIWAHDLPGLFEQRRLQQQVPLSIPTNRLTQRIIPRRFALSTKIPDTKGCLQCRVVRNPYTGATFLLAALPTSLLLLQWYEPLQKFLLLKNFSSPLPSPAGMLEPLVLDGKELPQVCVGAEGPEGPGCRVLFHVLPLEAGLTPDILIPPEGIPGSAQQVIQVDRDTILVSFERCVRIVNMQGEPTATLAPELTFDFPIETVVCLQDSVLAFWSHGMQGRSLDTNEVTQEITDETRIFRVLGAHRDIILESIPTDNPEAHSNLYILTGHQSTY
Sequence of MLK3/MAP3K11 (Q16584 whole entry): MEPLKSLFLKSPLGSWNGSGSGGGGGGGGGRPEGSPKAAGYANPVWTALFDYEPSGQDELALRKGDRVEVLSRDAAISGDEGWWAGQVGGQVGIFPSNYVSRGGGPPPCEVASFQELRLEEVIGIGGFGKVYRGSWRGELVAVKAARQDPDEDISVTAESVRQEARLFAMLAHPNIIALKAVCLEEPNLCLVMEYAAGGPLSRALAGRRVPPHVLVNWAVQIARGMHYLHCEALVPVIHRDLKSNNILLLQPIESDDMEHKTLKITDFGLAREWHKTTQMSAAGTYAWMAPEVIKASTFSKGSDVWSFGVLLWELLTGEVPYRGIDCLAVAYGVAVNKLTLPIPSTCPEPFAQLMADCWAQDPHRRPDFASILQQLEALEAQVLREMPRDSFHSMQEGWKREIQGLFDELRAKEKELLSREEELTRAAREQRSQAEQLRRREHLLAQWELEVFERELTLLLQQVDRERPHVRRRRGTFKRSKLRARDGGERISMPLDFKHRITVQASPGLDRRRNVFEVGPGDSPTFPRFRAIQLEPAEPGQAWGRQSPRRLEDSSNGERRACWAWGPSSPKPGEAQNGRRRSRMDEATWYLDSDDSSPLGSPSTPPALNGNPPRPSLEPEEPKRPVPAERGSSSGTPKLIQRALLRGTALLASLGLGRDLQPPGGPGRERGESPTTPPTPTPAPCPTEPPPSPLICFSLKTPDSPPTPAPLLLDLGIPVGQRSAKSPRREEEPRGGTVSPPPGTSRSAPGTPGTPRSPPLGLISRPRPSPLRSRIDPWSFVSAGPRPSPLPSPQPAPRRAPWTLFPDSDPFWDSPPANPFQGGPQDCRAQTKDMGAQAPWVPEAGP

fold selectivity for MAP4K4 over KHS/MAP4K5 (KHS/MAP4K5): (316) fold
IC50 (KHS/MAP4K5; read-out: pIC50 KHS/MAP4K5 (converted)): 1000 nM
fold selectivity for MAP4K4 over GSK3β (GSK3β): (31622) fold
IC50 (GSK3β; read-out: pIC50 GSK3β (converted)): 31600 nM
fold selectivity for MAP4K4 over MLK1/MAP3K9 (MLK1/MAP3K9): (63) fold
IC50 (MLK1/MAP3K9; read-out: pIC50 MLK1/MAP3K9 (converted)): 63.1 nM
IC50 (TNIK/MAP4K7; read-out: pIC50 TNIK/MAP4K7 (converted)): 5.01 nM
fold selectivity for MAP4K4 over ABL1 (ABL1): (794) fold
IC50 (ABL1; read-out: pIC50 ABL1 (converted)): 794 nM
fold selectivity for MAP4K4 over VEGFR (VEGFR): (501) fold
pIC50 VEGFR (VEGFR): 6.3
IC50 [1, 9]: ≤ 100 nM
IC50 ([1]; read-out: pIC50 MAP4K4 (converted)): 1.58 nM
fold selectivity for MAP4K4 over GLK/MAP4K3 (GLK/MAP4K3): (31622) fold
IC50 (GLK/MAP4K3; read-out: pIC50 GLK/MAP4K3 (converted)): 31600 nM
IC50 (MINK1/MAP4K6; read-out: pIC50 MINK1/MAP4K6 (converted)): 7.94 nM
fold selectivity for MAP4K4 over GCK/MAP4K2 (GCK/MAP4K2): (316) fold
IC50 (GCK/MAP4K2; read-out: pIC50 GCK/MAP4K2 (converted)): 316 nM
fold selectivity for MAP4K4 over NUAK (NUAK): (63) fold
pIC50 NUAK (NUAK): 7.2
fold selectivity for MAP4K4 over MLK3/MAP3K11 (MLK3/MAP3K11): (63) fold
IC50 (MLK3/MAP3K11; read-out: pIC50 MLK3/MAP3K11 (converted)): 63.1 nM
fold selectivity for MAP4K4 over FLT3 (FLT3): (31622) fold
IC50 (FLT3; read-out: pIC50 FLT3 (converted)): 31600 nM
fold selectivity for MAP4K4 over Aurora B (Aurora B): (31622) fold
IC50 (Aurora B; read-out: pIC50 Aurora B (converted)): 31600 nM
SMILES: O=C1NCCN1c1ccc(-c2cn(-c3ccccc3)c3nc[nH]c(=O)c23)cc1 [Ex-61]

SMILES: COCCOc1ccc(-c2cn(-c3ccccc3)c3nc[nH]c(=O)c23)cc1 [Ex-58, 5-[4-(2-Methoxy-ethoxy)-phenyl]-7-phenyl-3,7-dihydro-pyrrolo[2,3-d]pyrimidin-4-one]
improvement of free plasma concentration over the earlier compound ([2]; 50 mg kg-1 oral dose, versus F1386-0303): > 80 fold
concentration at 1 h ([2]; mouse, plasma, po, 50 mg kg-1): 334 nM
concentration at 10 h ([2]; mouse, plasma, po, 50 mg kg-1): 8 nM
fold selectivity for MAP4K4 over KHS/MAP4K5 (KHS/MAP4K5): (153) fold
pIC50 KHS/MAP4K5 (KHS/MAP4K5): 6.36
fold selectivity for MAP4K4 over GSK3β (GSK3β): (7762) fold
pIC50 GSK3β (GSK3β): 4.66
fold selectivity for MAP4K4 over MLK1/MAP3K9 (MLK1/MAP3K9): (23) fold
pIC50 MLK1/MAP3K9 (MLK1/MAP3K9): 7.19
reduction in infarct size as a proportion of the area at ischemic risk ([3]; begun 20 min prior to ischemia): more than 50%
reduction in infarct size as a proportion of the area at ischemic risk ([3]; begun 1 h after reperfusion injury): > 60%
In vivo efficacy (infarct size/area at risk), reduction ([3]; mice, experimental myocardial infarction): 65% reduction
suppression of cardiomyocyte apoptosis (TUNEL) in the jeopardized adjacent myocardium ([3]; post-injury study): 52%
suppression of cardiomyocyte apoptosis (TUNEL) within the infarct ([3]; post-injury study): 39%
protection of human cardiomyocytes (in words) ([4]; CorV.4U cells, H2O2 and menadione, both viability assays): Protection of human cardiomyocytes was substantiated
Protection in human iPSC-derived ventricular cardiomyocytes, H202, efficacy relative to Ex-58 ([4]; H2O2 as death trigger, relative to Ex-58): (1)
EC50 ([4]; Homo sapiens, Cardiomyocyte, H2O2 as death trigger, read-out: Protection in human iPSC-derived ventricular cardiomyocytes, EC50 H202): 403 nM
Protection in H9c2 cardiomyocytes, efficacy relative to Ex-58 (H9c2 cardiomyocytes; H9c2 cardiomyocytes, relative to Ex-58): (1)
EC50 (H9c2 cardiomyocytes; Rattus norvegicus, H9c2): 350 nM
pIC50 TNIK/MAP4K7 (TNIK/MAP4K7): 7.96
AUCinf [5]: 63733
extracellular acidification rate (glycolytic function) (CorV.4U hiPSC-CMs): largely rescued
fold selectivity for MAP4K4 over ABL1 (ABL1): (560) fold
pIC50 ABL1 (ABL1): 5.80
fold selectivity for MAP4K4 over VEGFR (VEGFR): (675) fold
pIC50 VEGFR (VEGFR): 5.72
greater potency than F1386-0303 [1]: 10 fold
pIC50 MAP4K4 [1]: 8.55
IC50 [1, 9]: ≤ 100 nM
selectivity for MAP4K4 (in words) ([1]; compared to F1386-303, 13 other protein kinases): highly selective
IC50 ([1]; read-out: MAP4K4, IC50): 3 nM
Human Heps ([6]; human): ≤10
Mouse Heps ([6]; mouse): 85
Pig Heps ([6]; pig): 8
Rat Heps ([6]; rat): 10
fold selectivity for MAP4K4 over GLK/MAP4K3 (GLK/MAP4K3): (3981) fold
pIC50 GLK/MAP4K3 (GLK/MAP4K3): 4.95
pIC50 MINK1/MAP4K6 (MINK1/MAP4K6): 8.18
fold selectivity for MAP4K4 over GCK/MAP4K2 (GCK/MAP4K2): (112) fold
pIC50 GCK/MAP4K2 (GCK/MAP4K2): 6.50
Cyp Inhibition (Cyp): >10 µM
fold selectivity for MAP4K4 over NUAK (NUAK): (47) fold
pIC50 NUAK (NUAK): 6.88
fold selectivity for MAP4K4 over MLK3/MAP3K11 (MLK3/MAP3K11): (36) fold
pIC50 MLK3/MAP3K11 (MLK3/MAP3K11): 6.99
fold selectivity for MAP4K4 over FLT3 (FLT3): (1148) fold
pIC50 FLT3 (FLT3): 5.31
cultures with persisting spontaneous calcium oscillations (hiPSC-CMs; 10 μM compound, 50 μM menadione, 21 of 24 cultures): 87.5%
adverse effect on functional parameters (hiPSC-CMs; hiPSC-CMs, mitochondrial function and calcium cycling): no adverse effect
fold selectivity for MAP4K4 over Aurora B (Aurora B): (560) fold
pIC50 Aurora B (Aurora B): 5.49
fraction unbound ([7]; human, read-out: Human PPB % (converted)): 0.01
fraction unbound ([7]; mouse, read-out: Mouse PPB % (converted)): 0.02

SMILES: Oc1ncnc2c1c(-c1ccccc1)cn2-c1ccccc1 [F1386-0303, 5,7-diphenyl-7H-pyrrolo[2,3-d]pyrimidin-4-ol, reference compound]
pIC50 GSK3β (GSK3β): 4.57
reduction of human cardiac muscle cell death [8]: 50%
protection from H2O2 or menadione ([4]; 10 μM, luminescent cell viability assay, human cardiac troponin assay): virtually complete
clearance and oral exposure in mice (in words) [5]: rapidly cleared and accumulates only to low levels
AUCinf [5]: 2162
pIC50 ABL1 (ABL1): 4.52
pIC50 MAP4K4 [1]: 7.46
IC50 ([1]; read-out: IC50 (MAP4K4)): 34 nM
pIC50 FLT3 (FLT3): 5.66
pIC50 Aurora B (Aurora B): 4.88
